According to patent publication US8802711B2, “TRPV1 antagonists” (AbbVie Inc., priority 2011, dated 2014):
pIC50: −log10 of the molar value.

How the values were obtained:
[1] = molecular target: T1, human TRPV1 receptor (hTRPV1) (Homo sapiens (Human), UniProt Q8NER1); assay: Acid activation assay (pH 5.0, FLIPR intracellular Ca2+); type: cell-based; details: Table 1; 37.5 μM antagonist, percentage of the maximal pH 5.0-induced response remaining; read-out: hTRPV1 H+ (max % remain)
Protocol: Dulbecco's modified Eagle's medium (DMEM) with 4.5 mg/mL D-glucose, fetal bovine serum, L-glutamine, and 2-morpholinoethanesulfonic acid (MES) were purchased from Sigma-Aldrich Co. (St. Louis, Mo.). Dulbecco's phosphate-buffered saline (DPBS) with Ca^2+, Mg^2+, and 1 mg/mL D-glucose (pH 7.4), Geneticin®, 0.25% trypsin-1 mM EDTA, and penicillin-streptomycin were purchased from Invitrogen Corp. (Carlsbad, Calif.). The FLIPR® Calcium 4 assay kit was purchased from Molecular Devices (Sunnyvale, Calif.).
The cDNAs for the human TRPV1 receptor (hTRPV1) were isolated by reverse transcriptase-polymerase chain reaction (RT-PCR) from human small intestine poly A+RNA supplied by Clontech (Palo Alto, Calif.) using primers designed surrounding the initiation and termination codons identical to the published sequences (Hayes et al. Pain 2000, 88, 205-215). The resulting cDNA PCR products were subcloned into pCIneo mammalian expression vector (Promega) and fully sequenced using fluorescent dye-terminator reagents (Prism, Perkin-Elmer Applied Biosystems Division) and a Perkin-Elmer Applied Biosystems Model 373 DNA sequencer or Model 310 genetic analyzer. Expression plasmids encoding the hTRPV1 cDNA were transfected individually into 1321N1 human astrocytoma cells using Lipofectamine. Forty-eight hours after transfection, the neomycin-resistant cells were selected with growth medium containing 800 μg/mL Geneticin (Gibco BRL). Surviving individual colonies were isolated and screened for TRPV1 receptor activity. Cells expressing recombinant homomeric TRPV1 receptors were maintained at 37° C. in DMEM containing 4 mM L-glutamine, 300 μg/mL G418 (Cal-biochem) and 10% fetal bovine serum under a humidified 5% CO2 atmosphere.
The functional activity of compounds at the TRPV1 receptor was determined by measurement of intracellular Ca^2+ levels ([Ca^2+]i) using the Fluorescence Imaging Plate Reader (FLIPR)^TETRA®. All compounds were tested over a 12-point one-half-log concentration range. Compound stocks, 10 mM, were prepared in DMSO, and diluted serially across a 384-well plate using a Bravo BenchCel workstation (Agilent Technologies, Santa Clara, Calif.).
On the day of the experiment growth medium was removed, and the no-wash FLIPR® Calcium-4 dye (λEX=470-495 nm, λEM=515-575 nm) was added to each well using the Multidrop® dispenser. Cells were incubated for 90-120 minutes in the dark at 25° C. Test compounds were dissolved in DMSO, and plates were prepared using an Agilent Bravo workstation (Agilent Technologies Inc., Santa Clara, Calif.). Compounds were added to the cells 3 minutes prior to the addition of a pH 5.0 solution. Reagents were delivered at a rate of 40 μL/sec, and the final assay volume was 80 μL. Acidic pH solutions were prepared by titration of DPBS/MES with 1 N HCl. The intensity of the fluorescence was captured and digitally transferred to an interfaced PC.

[2] = molecular target: T1, human TRPV1 receptor (hTRPV1); assay: Capsaicin activation assay (FLIPR intracellular Ca2+); type: cell-based; details: Table 1; inhibition of capsaicin-induced intracellular Ca2+ increase, HEK293 cells expressing human TRPV1; read-out: hTRPV1 cap IC50
Protocol: Dulbecco's modified Eagle medium (D-MEM) (with 4.5 mg/mL glucose) and fetal bovine serum were obtained from Hyclone Laboratories, Inc. (Logan, Utah). Dulbecco's phosphate-buffered saline (D-PBS) (with 1 mg/mL glucose and 3.6 mg/l Na pyruvate, without phenol red), L-glutamine, hygromycin B, and Lipofectamine® were obtained from Life Technologies (Grand Island, N.Y.). G418 sulfate was obtained from Calbiochem-Novabiochem Corp. (San Diego, Calif.). Capsaicin (8-methyl-N-vanillyl-6-nonenamide) was obtained from Sigma-Aldrich, Co. (St. Louis, Mo.). Fluo-4 AM (N-[4-[6-[(acetyloxy)methoxy]-2,7-difluoro-3-oxo-3H-xanthen-9-yl]-2-[2-[2-[bis[2-[(acetyloxy)methoxy]-2-oxyethyl]amino]-5-methyl phenoxy]ethoxy]phenyl]-N-[2-[(acetyloxy)methoxy]-2-oxyethyl]-glycine, (acetyloxy)methyl ester) was purchased from Molecular Probes (Eugene, Oreg.). […]
The functional activity of compounds at the TRPV1 receptor was determined by measurement of intracellular Ca^2+ levels ([Ca^2+]i) using the Fluorescence Imaging Plate Reader (FLIPR)^TETRA®. All compounds were tested over a 12-point one-third-log concentration range. Compound stocks, 10 mM, were prepared in DMSO, and diluted serially across a 384-well plate using a Bravo BenchCel workstation (Agilent Technologies, Santa Clara, Calif.). A stock concentration of capsaicin (10 mM) was made in DMSO, and diluted in D-PBS to a final concentration of 200 nM (4×). On the day prior to the experiment, recombinant HEK293 cells that stably express human TRPV1 were removed from tissue culture flasks and plated in growth medium into black-walled clear-bottom 384-well Biocoat™ poly-D-lysine assay plates (BD Biosciences, Bedford, Mass.) using a Multidrop® dispenser (ThermoScientific, Waltham, Mass.). On the day of the experiment, growth medium was removed, and the no-wash FLIPR® Calcium-4 dye (λEX=470-495 nm, λEM=515-575 nm; Molecular Devices, Sunnyvale, Calif.) was added to each well using the Multidrop® dispenser. Cells were incubated for 90-120 minutes in the dark at room temperature. Test compounds were added to the cells 3 minutes prior to the addition of 200 nM capsaicin (4×), and the final assay volume was 80 μL. Fluorescence readings were made at 1 to 5 second intervals over the course of the experimental run. The peak increase in relative fluorescence units (minus baseline) was calculated, and expressed as a percentage of the 50 nM capsaicin (control) response.

T1 sequence (Q8NER1 whole entry): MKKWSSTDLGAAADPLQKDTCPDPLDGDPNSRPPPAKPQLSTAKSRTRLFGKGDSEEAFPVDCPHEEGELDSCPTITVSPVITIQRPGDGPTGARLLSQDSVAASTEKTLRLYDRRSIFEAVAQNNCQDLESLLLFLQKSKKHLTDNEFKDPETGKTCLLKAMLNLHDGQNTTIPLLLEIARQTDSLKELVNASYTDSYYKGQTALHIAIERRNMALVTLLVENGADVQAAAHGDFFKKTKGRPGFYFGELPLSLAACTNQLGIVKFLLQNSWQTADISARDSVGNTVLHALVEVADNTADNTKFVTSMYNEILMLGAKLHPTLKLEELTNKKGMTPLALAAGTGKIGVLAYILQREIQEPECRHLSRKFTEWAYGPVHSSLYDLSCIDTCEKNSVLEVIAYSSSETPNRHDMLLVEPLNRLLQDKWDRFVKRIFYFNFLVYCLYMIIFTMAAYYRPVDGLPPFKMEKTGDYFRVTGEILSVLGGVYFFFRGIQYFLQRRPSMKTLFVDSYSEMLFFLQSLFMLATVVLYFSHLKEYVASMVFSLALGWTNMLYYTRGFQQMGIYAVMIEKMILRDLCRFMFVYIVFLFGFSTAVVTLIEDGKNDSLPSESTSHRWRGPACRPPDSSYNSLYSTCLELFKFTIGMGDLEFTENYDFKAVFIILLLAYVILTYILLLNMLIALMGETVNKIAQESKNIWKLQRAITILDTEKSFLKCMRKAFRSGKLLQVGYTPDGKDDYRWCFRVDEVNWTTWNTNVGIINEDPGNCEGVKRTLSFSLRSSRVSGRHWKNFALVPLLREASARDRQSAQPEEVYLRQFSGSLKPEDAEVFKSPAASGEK

| Compound | remaining activity at 37.5 µM [1] | pIC50 [2] |
| --- | --- | --- |
| O=C(Nc1cccc2c1C[C@H](O)CC2)N[C@@H]1CC[C@H](c2ccccc2)C1 [Compound G, 1-[(7R)-7-hydroxy-5,6,7,8-tetrahydronaphthalen-1-yl]-3-[(1R,3S)-3-phenylcyclopentyl]urea, reference compound] | 2% | 8.40 |
| O=C(Nc1cccc2c1C[C@H](O)C2)N[C@@H]1CC[C@H](c2ccccc2)C1 [Example 1, 1-[(2R)-2-hydroxy-2,3-dihydro-1H-inden-4-yl]-3-[(1R,3S)-3-phenylcyclopentyl]urea] | 93% | 6.97 |
| C[C@H]1Oc2c(NC(=O)N[C@@H]3CC[C@H](c4ccccc4)C3)cccc2NC1=O [Example 3, 1-[(2R)-2-methyl-3-oxo-3,4-dihydro-2H-1,4-benzoxazin-8-yl]-3-[(1R,3S)-3-phenylcyclopentyl]urea] | 2% | 7.26 |
| O=C1CCc2ccc(NC(=O)N[C@@H]3CC[C@H](c4ccccc4)C3)cc2N1 [Example 5, 1-(2-oxo-1,2,3,4-tetrahydroquinolin-7-yl)-3-[(1R,3S)-3-phenylcyclopentyl]urea] | 81% | 7.15 |
| O=C(Nc1cccc2c1C[C@H](O)C2)N[C@H]1CC[C@H](c2ccccc2)C1 [Example 8, 1-[(2R)-2-hydroxy-2,3-dihydro-1H-inden-4-yl]-3-[(1S,3S)-3-phenylcyclopentyl]urea] | 78% | 6.91 |
| O=C(Nc1cccc2c1C[C@@H](O)C2)N[C@H]1CC[C@H](c2ccccc2)C1 [Example 9, 1-[(2S)-2-hydroxy-2,3-dihydro-1H-inden-4-yl]-3-[(1S,3S)-3-phenylcyclopentyl]urea] | 14% | 6.69 |
| C[C@H]1Oc2c(NC(=O)N[C@H]3CC[C@H](c4ccccc4)C3)cccc2NC1=O [Example 10, 1-[(2R)-2-methyl-3-oxo-3,4-dihydro-2H-1,4-benzoxazin-8-yl]-3-[(1S,3S)-3-phenylcyclopentyl]urea] | 3% | 7.08 |
| Cn1ncc2c(NC(=O)N[C@H]3CC[C@H](c4ccccc4)C3)cccc21 [Example 11, 1-(1-methyl-1H-indazol-4-yl)-3-[(1S,3S)-3-phenylcyclopentyl]urea] | 49% | 7.08 |
| O=C1CCc2ccc(NC(=O)N[C@H]3CC[C@H](c4ccccc4)C3)cc2N1 [Example 12, 1-(2-oxo-1,2,3,4-tetrahydroquinolin-7-yl)-3-[(1S,3S)-3-phenylcyclopentyl]urea] | 65% | 6.68 |
| Cc1cc2c(NC(=O)N[C@H]3CC[C@H](c4ccccc4)C3)c(F)ccc2cn1 [Example 13, 1-(6-fluoro-3-methylisoquinolin-5-yl)-3-[(1S,3S)-3-phenylcyclopentyl]urea] | 60% | 7.89 |

Second part, the molecule after the results:

| remaining activity at 37.5 µM [1] | pIC50 [2] | Compound |
| --- | --- | --- |
| 20% | 6.75 | O=C(Nc1cccc2c1C[C@H](O)C2)N[C@@H]1CC[C@@H](c2ccccc2)C1 [Example 15, 1-[(2R)-2-hydroxy-2,3-dihydro-1H-inden-4-yl]-3-[(1R,3R)-3-phenylcyclopentyl]urea] |
| 87% | 7.10 | O=C(Nc1cccc2c1C[C@@H](O)C2)N[C@@H]1CC[C@@H](c2ccccc2)C1 [Example 16, 1-[(2S)-2-hydroxy-2,3-dihydro-1H-inden-4-yl]-3-[(1R,3R)-3-phenylcyclopentyl]urea] |
| 25% | 6.43 | C[C@H]1Oc2c(NC(=O)N[C@@H]3CC[C@@H](c4ccccc4)C3)cccc2NC1=O [Example 17, 1-[(2R)-2-methyl-3-oxo-3,4-dihydro-2H-1,4-benzoxazin-8-yl]-3-[(1R,3R)-3-phenylcyclopentyl]urea] |
| 18% | 7.15 | Cn1ncc2c(NC(=O)N[C@@H]3CC[C@@H](c4ccccc4)C3)cccc21 [Example 18, 1-(1-methyl-1H-indazol-4-yl)-3-[(1R,3R)-3-phenylcyclopentyl]urea] |
| 81% | < 4.43 | O=C1CCc2ccc(NC(=O)N[C@@H]3CC[C@@H](c4ccccc4)C3)cc2N1 [Example 19, 1-(2-oxo-1,2,3,4-tetrahydroquinolin-7-yl)-3-[(1R,3R)-3-phenylcyclopentyl]urea] |
| 41% | 6.54 | O=C(Nc1cccc2c1C[C@H](O)C2)N[C@H]1CC[C@@H](c2ccccc2)C1 [Example 22, 1-[(2R)-2-hydroxy-2,3-dihydro-1H-inden-4-yl]-3-[(1S,3R)-3-phenylcyclopentyl]urea] |
| 88% | 6.86 | O=C(Nc1cccc2c1C[C@@H](O)C2)N[C@H]1CC[C@@H](c2ccccc2)C1 [Example 23, 1-[(2S)-2-hydroxy-2,3-dihydro-1H-inden-4-yl]-3-[(1S,3R)-3-phenylcyclopentyl]urea] |
| 1% | 7.07 | C[C@H]1Oc2c(NC(=O)N[C@H]3CC[C@@H](c4ccccc4)C3)cccc2NC1=O [Example 24, 1-[(2R)-2-methyl-3-oxo-3,4-dihydro-2H-1,4-benzoxazin-8-yl]-3-[(1S,3R)-3-phenylcyclopentyl]urea] |
| 46% | 6.20 | Cn1ncc2c(NC(=O)N[C@H]3CC[C@@H](c4ccccc4)C3)cccc21 [Example 25, 1-(1-methyl-1H-indazol-4-yl)-3-[(1S,3R)-3-phenylcyclopentyl]urea] |
| 65% | 6.26 | O=C1CCc2ccc(NC(=O)N[C@H]3CC[C@@H](c4ccccc4)C3)cc2N1 [Example 26, 1-(2-oxo-1,2,3,4-tetrahydroquinolin-7-yl)-3-[(1S,3R)-3-phenylcyclopentyl]urea] |
| 68% | 5.76 | CC(C)(C)c1ccc(C2CCCC(NC(=O)Nc3cccc4[nH]ncc34)C2)cc1 (centres unmarked) [Example 29, 1-[3-(4-tert-butylphenyl)cyclohexyl]-3-(1H-indazol-4-yl)urea] |
| 26% | 5.98 | O=C(Nc1cccc2[nH]ncc12)NC1CCCC(c2ccc(C(F)(F)F)cc2)C1 (centres unmarked) [Example 30, 1-(1H-indazol-4-yl)-3-{3-[4-(trifluoromethyl)phenyl]cyclohexyl}urea] |
